Data published in ChEMBL document CHEMBL3044768, “Chemistry, toxicity and antifeedant activity of the resin of Flourensia thurifera” (1997).
In brackets after ≈: the same amount, converted by molar mass.

Legend:
Artemia salina = experiment: Toxicity against Artemia salina (brine shrimp) after 24 hr; type: functional
Spodoptera littoralis = experiment: Antifeedant activity against fifth instar larvae of Spodoptera littoralis fed on compound-treated lettuce leaf at 10 ug/cm'2 by leaf-disk method; type: functional; parameters: unit not given here

SMILES | LC50 (Artemia salina) [µg/mL] | FR50 (Spodoptera littoralis)
COC(=O)/C=C/c1ccc(OC(C)=O)c(C/C=C(\C)COC(C)=O)c1 | 39.8 (≈ 115 µM) | –
CC(=O)c1cc2c(cc1O)OC(C)(C)C=C2 [DEMETHYLENCECALIN] | 17.6 (≈ 80.6 µM) | 0.4
CC(C)=CCOc1cc2oc(=O)ccc2cc1O [PRENYLETIN] | 3.8 (≈ 15.4 µM) | 1.06
C=C(C)c1cc2cc(C(C)=O)c(O)cc2o1 [EUPARIN] | 58.9 (≈ 272 µM) | 0.42
COc1cc2ccc(=O)oc2c(O)c1OCC=C(C)C [CAPENSIN] | 52.5 (≈ 190 µM) | 1.04
COc1cc2ccc(=O)oc2cc1OCC=C(C)C [PRENYLETIN 6-METHYL ETHER] | 17.6 (≈ 67.6 µM) | 0.43
COc1cc2c(cc1C(C)=O)C=CC(C)(C)O2 [ENCECALIN] | 0.9 (≈ 3.87 µM) | 0.08
COc1cc(O)c2c(=O)c(O)c(-c3ccc(O)c(O)c3)oc2c1 [RHAMNETIN] | – | 71
CC(C)=CCc1cc(/C=C/C(=O)O)ccc1O [DRUPANIN] | 104 (≈ 449 µM) | 78
